Three molecules from patent publication US20200368262A1, “Use of Timosaponin Enzymatically Transformed Product in Preparation of Drugs for Inhibiting Skin Superficial Fungi” (Shanghai University of Traditional Chinese Medicine, priority 2019, published 2020) can be followed below.

In brackets after ≈: the same amount, converted by molar mass.

Assay in all cases: Trace liquid-based dilution MIC
Common to all, as to type: cell-based

Experiment [1] relates to trichophyton mentagrophytes t5a. Particulars: MIC80 (OD 630 nm reduced by 80% or more), 30° C., 7 days; for MIC: Trichophyton mentagrophytes, T5A, 168 h, read-out: In vitro Bacteriostatic Activity (MIC) trichophyton mentagrophytes t5a. An excerpt:
(§1) Trichophyton rubrum, microsporum gypseum, and trichophyton mentagrophytes were activated with a Sabouraud glucose agar culture medium, and the concentration of spores was adjusted with an RPM11640 culture solution to 1×10^35×10^3 CFU/mL.
(§2) In the present experiment, the minimum inhibitory concentrations of the ethanol extract of rhizoma anemarrhenae and the timosaponin enzymatically transformed product against five common pathogenic fungi were detected by through a trace liquid-based dilution method recommended by the Clinical and Laboratory Standards Institute and the Chinese pharmacopoeia. Fluconazole was used as a positive control drug.
(§3) A specific experimental method is as follows: candida albicans, cryptococcus neoformans, trichophyton rubrum, trichophyton mentagrophytes, and microsporum gypseum were inoculated to a 96-well plate, respectively. The drug with different concentrations was added to the culture, wherein final concentrations of the drug were 64 mg/L, 32 mg/L, 16 mg/L, 8 mg/L, 4 mg/L, 2 mg/L, 1 mg/L, and 0.5 mg/L, respectively. Fungi treated without drug was used as positive control. The candida albicans was cultured at 35° C. for 24 hours while the cryptococcus neoformans was cultured at 35° C. for 72 hours and the trichophyton rubrum, the trichophyton mentagrophytes, and the microsporum gypseum were cultured at 30° C. for 7 days. The OD value of each well under the wavelength of 630 nm was measured using an microplate reader. The lowest drug concentration with an OD value reduced by 80% or more compared with the positive control wells was considered as MIC8o, namely the drug concentration inducing 80% inhibition against fungus growth was inhibited by 80%. When the MIC80 value of the drug was higher than the maximum concentration of 64 mg/L, “>64 mg/L” was recorded.

Another experiment has as its system Microsporum gypseum mzc. As to conditions: MIC80 (OD 630 nm reduced by 80% or more), 30° C., 7 days; for MIC: Nannizzia gypsea, 168 h, read-out: In vitro Bacteriostatic Activity (MIC) Microsporum gypseum mzc.
Excerpt: as §1, §2, §3

The test system of another experiment is Trichophyton rubrum tia. As to conditions: MIC80 (OD 630 nm reduced by 80% or more), 30° C., 7 days; for MIC: Trichophyton rubrum, 168 h, read-out: In vitro Bacteriostatic Activity (MIC) Trichophyton rubrum tia.
Excerpt: as §1, §2, §3

A further experiment relates to C. albicans SC5314. As to conditions: Candida albicans, MIC80 (OD 630 nm reduced by 80% or more), 35° C., 24 hours, read-out: In vitro Bacteriostatic Activity (MIC) C. albicans SC5314.
Excerpt: (§4) Spherical bacteria such as cryptococcus neoformans and candida albicans were taken, and activated with YEPD culture solution, and then the concentration of the bacteria solution was adjusted with RPM11640 culture solution to 1×10^3˜5 ×10^3 CFU/mL.
as §2, §3

Another experiment relates to C. albicans Y0109. As to conditions: Candida albicans, MIC80 (OD 630 nm reduced by 80% or more), 35° C., 24 hours, read-out: In vitro Bacteriostatic Activity (MIC) C. albicans Y0109.
Excerpt: as §4, §2, §3

Experiment [2] concerns Cryptococcus neoformans 32609. Particulars: MIC80 (OD 630 nm reduced by 80% or more), 35° C., 72 hours, read-out: In vitro Bacteriostatic Activity (MIC) Cryptococcus neoformans 32609.
Excerpt: as §4, §2, §3

On to `OC(Cn1cncn1)(Cn1cncn1)c1ccc(F)cc1F` [fluconazole], for which the MIC (commonly the lowest concentration found to suppress growth) in experiment [1] was 32 µg/mL (≈ 104 µM); in the experiment on Microsporum gypseum mzc, 8 µg/mL (≈ 26.1 µM); in the experiment on Trichophyton rubrum tia it was 2 µg/mL (≈ 6.53 µM); in the experiment on C. albicans SC5314, 0.5 µg/mL (≈ 1.63 µM); in the experiment on C. albicans Y0109 it was 1 µg/mL (≈ 3.27 µM); in experiment [2], 1 µg/mL (≈ 3.27 µM).

As for `CC[C@@H]([C@H](C)O)n1ncn(-c2ccc(N3CCN(c4ccc(OC[C@@H]5CO[C@@](Cn6cncn6)(c6ccc(F)cc6F)C5)cc4)CC3)cc2)c1=O` [posaconazole], the MIC in experiment [1] turned out to be 0.25 µg/mL (≈ 0.357 µM); with Microsporum gypseum mzc, 0.25 µg/mL (≈ 0.357 µM); in the experiment with Trichophyton rubrum tia, 2 µg/mL (≈ 2.85 µM); in the experiment with C. albicans SC5314, 0.5 µg/mL (≈ 0.713 µM); in the experiment with C. albicans Y0109 it was 1 µg/mL (≈ 1.43 µM); in experiment [2] it was 0.25 µg/mL (≈ 0.357 µM).

In the case of `C[C@H]1CC[C@@]2(OC1)O[C@H]1C[C@H]3[C@@H]4CC[C@@H]5C[C@@H](O[C@@H]6O[C@H](CO)[C@H](O)[C@H](O)[C@H]6O[C@@H]6O[C@H](CO)[C@@H](O)[C@H](O)[C@H]6O)CC[C@]5(C)[C@H]4CC[C@]3(C)[C@H]1[C@@H]2C` [timosaponin AIII], the “In vitro Bacteriostatic Activity (MIC) trichophyton mentagrophytes t5a” value in experiment [1] (listed as timosaponin Alll) came to 2 µg/mL. The MIC (in experiment [1]; in the experiment on Microsporum gypseum mzc; with Trichophyton rubrum tia; with C. albicans SC5314; in the experiment on C. albicans Y0109; in experiment [2]) was 4 µg/mL (≈ 5.4 µM) each time. The “In vitro Bacteriostatic Activity (MIC) Microsporum gypseum mzc” value in the experiment with Microsporum gypseum mzc (listed as timosaponin Alll) stood at 2 µg/mL. In addition, the “In vitro Bacteriostatic Activity (MIC) Trichophyton rubrum tia” value in the experiment on Trichophyton rubrum tia (listed as timosaponin Alll) was 2 µg/mL.
